One series relates to H1N1 influenza virus. Also noted: species or system BALB/c mice. Particulars: mouse, in vivo.
Series [1] has as its system H1N1 (swine) influenza virus. The series is classed as cell-based, swine influenza H1N1v virus.
Another series deals with H5N1 virus. The series is classed as cell-based.
A further series relates to 721.221 target cells. In kind it is cell-based. As to conditions: effector cells pre-incubated 24 hours with AS101; high concentrations less effective than moderate.
The subject of a further series is primary NK cells. The series is classed as cell-based. As to conditions: 24 hours incubation, 0.1-5 μg/ml, supernatant ELISA. (In an ELISA, binding on a coated surface is turned into a signal by an enzyme label.)
The next series has as its system H5N1 influenza virus. On the set-up: species or system BALB/c mice. Particulars: mouse, in vivo.
Series [2] deals with mouse cytomegalovirus (MCMV). Particulars: Sredni et al., Immunol Lett 1994; cited from earlier work.
The subject of a further series is YTS cells. In kind it is cell-based.
Series [3] has as its system human immunodeficiency virus type 1 (HIV-1). As to conditions: Vonsover et al., AIDS Res Hum Retroviruses 1992; cited from earlier work.
The test system of a further series is INFγ. In kind it is in vivo, mice. As to conditions: treated 24 hours before infection, six days after infection.
The subject of series [4] is phosphorylated Akt (PI3k-Akt signaling). The series is classed as cell-based, canine.

The structures appear in SMILES notation.

Take `CCOC(=O)C1=C[C@@H](OC(CC)CC)[C@H](NC(C)=O)[C@@H](N)C1` [oseltamivir, reference compound]: the “H1N1 virus in infected mice (lung titer, real-time RT-PCR)” value in the series with H1N1 influenza virus is given as “Inhibition”.

On to `Cl[TeH]1(Cl)(Cl)OCCO1` [AS101, ammonium trichloro(dioxyethylene-O,O′)tellurate], for which the “toxicity to the cells (MTT)” value with MDCK cells is recorded as “not toxic”. In series [1], the “H1N1 virus infection, administered concomitantly with the virus” value is listed as “strongest inhibition”; the “H1N1 virus infection, each tested administration time” value was “inhibition”; the “replication of H1N1 influenza virus (viral titer by ELISA)” value is “significant inhibition”. For the same molecule, in the series with H1N1 influenza virus, the “H1N1 virus in infected mice (lung titer, real-time RT-PCR)” value is “significant inhibition” and the “H1N1 virus titers in the lungs, each tested administration time” value is “significantly reduced”. The “protection of cells from viral infection by supernatant of treated cells” value in the series with H5N1 virus is “can protect cells from viral infection”. For the same molecule, the “NK killing of target cells” value in the series with 721.221 target cells was “increased NK killing”. Further, the “IFN-γ secretion by primary NK cells” value in the series with primary NK cells is reported as “increased secretion”. Also, in the series with H5N1 influenza virus, the “H5N1 virus in infected mice (lung titer, real-time RT-PCR)” value is recorded as “significant inhibition” and the “H5N1 virus titers in the lungs, each tested administration time” value is listed as “significantly reduced”. Further, the “body weight loss after infection” value in the series with H5N1 influenza virus (ip) is given as “weight loss was reduced somewhat”. In [2], the “effect against mouse cytomegalovirus (MCMV)” value was “inhibitory effect”. Besides, in the series on YTS cells, the “AS101 concentration at which the effect on IFN-γ secretion decreased” value is on record as “above 1 μg/ml” and the “IFN-γ secretion by YTS cells” value is “increased secretion”. For the same molecule, in series [3], the “effect against human immunodeficiency virus type 1 (HIV-1)” value is “inhibitory effect”. Besides, in the series on INFγ, the “interferon secretion in lungs of H5N1 infected mice” value is listed as “restored interferon secretion to the levels observed in uninfected mice”. Also, in series [4], the “level of phosphorylated Akt, AS101 treatment alone” value is “increased”. In addition, the “level of phosphorylated Akt, cells infected with H5N1 virus” value in series [4] (MDCK cells, 2 μg/ml, 10^2×TCID50 H5N1, 24 hours) is “dramatically reduced levels”.

The values are drawn from patent US20120157519A1 (priority 2009, published 2012).
